Experimental data published in patent US20220071985A1, “QUINOLINE DERIVATIVES FOR USE IN THE TREATMENT OR PREVENTION OF CANCER” (ABIVAX, priority 2018, published 2022).
pIC50: −log10 of the molar value.

Legend:
Assay type in all cases: cell-based
[1] = system: CR3085 cell line (Large intestine/Colorectum); assay: CellTiter-Glo cell viability assay, CR3085; conditions: Homo sapiens
Procedure: (§1) All cell lines are hyman primary cell lines cultured in DMEM/F12+10% FBS+supplemental growth factors, at 37° C. with 5% C02, as explained below. The cell lines are from large intestine/colorectum, stomach, liver, lung or pancreas (see table below). • DMEM/F12 (high glucose) (Gibco, Cat #11320033) • FBS (Cat #FND500, ExCell Bio) • CellTiter-Glo® Luminescent Cell Viability Assay (Cat # G7571, Promega. Stored at −20° C.). • 96 wells plate (Cat #3610, Corning) • DMEM/F12 medium (low glucose): 1:1 mixture of DMEM (low glucose) (Gibco, Cat #11885076) and F-12K (Gibco, Cat #21127022)
(§2) Two types of cell lines have been tested for the compound 26, namely CR3085 (Large intestine/Colorectum) and GA0060 (stomach), as shown below.
(§3) 1. Each well of a 96-well plate contains 90 μL of cell suspension with cells. The number of cells to be seeded is determined on the basis of a Cell Density Optimization Assay. 2. All 96-wells plates with cells are placed in an incubator overnight at 37° C. with 5% CO2.
(§4) 3. Dilute ABX464 and add 10 μL/well of ABX464 at the concentrations indicated (see plate map below). The final volume is 100 μL/well.
(§5) 4. Replace the old medium by pre-prepared fresh medium with ABX464 at the same concentrations indicated. The final volume is 100 μL/well.
(§6) 5. Cells are observed under a microscope ensuring the cells treated with vehicle control are in good condition. 6. Add 50 μL of CellTiter-Glo® Reagent to each well. 7. Mix contents for 2 minutes on an orbital shaker to facilitate cell lysis. 8. Allow the plate to incubate at room temperature for 10 minutes to stabilize luminescent signals. 9. Record luminescence using an EnVision Multi Label Reader.
(§7) Data analysis is performed using GraphPad Prism 7.0. To calculate IC50s, a dose-response curve is generated using a nonlinear regression model with a sigmoidal dose response. The formula of surviving rate is shown below, and the IC50s will be automatically generated by GraphPad Prism 7.0.
(§8) LumNone treated-LumMedium control is set as 100%.

[2] = system: GA0060 cell line (Stomach); assay: CellTiter-Glo cell viability assay, GA0060; conditions: Homo sapiens
Procedure: as §1, §2, §3, §4, §5, §6, §7, §8

[3] = system: PA1405 cell line (Pancreas); assay: CellTiter-Glo cell viability assay, PA1405; conditions: Homo sapiens, 168 h, 7 days drug treatment
Procedure: as §1, §3, §4, §5
(§9) 5. Cells are observed under a microscope ensuring the cells treated with vehicle control are in good condition. 6. Add 50 μL of CellTiter-Glo® Reagent to each well. 7. […] Record luminescence using an EnVision Multi Label Reader. […]

[4] = system: PA0692 cell line (Pancreas); assay: CellTiter-Glo cell viability assay, PA0692; conditions: Homo sapiens, 168 h, 7 days drug treatment
Procedure: as §1, §3, §4, §5, §9

[5] = system: CR0205 cell line (Large intestine/Colorectum); assay: CellTiter-Glo cell viability assay, CR0205; conditions: Homo sapiens, 168 h, 7 days drug treatment
Procedure: as §1, §3, §4, §5, §9

LI0612 cell line (Liver) = assay: CellTiter-Glo cell viability assay, LI0612; conditions: Homo sapiens, 168 h, 7 days drug treatment
Procedure: as §1, §3, §4, §5, §9

[6] = system: CR3150 cell line (Large intestine/Colorectum); assay: CellTiter-Glo cell viability assay, CR3150; conditions: Homo sapiens, 168 h, 7 days drug treatment
Procedure: as §1, §3, §4, §5, §9

LU0387 cell line (Lung) = assay: CellTiter-Glo cell viability assay, LU0387; conditions: Homo sapiens, 168 h, 7 days drug treatment
Procedure: as §1, §3, §4, §5, §9

[7] = system: PA3060 cell line (Pancreas); assay: CellTiter-Glo cell viability assay, PA3060; conditions: Homo sapiens, 168 h, 7 days drug treatment
Procedure: as §1, §3, §4, §5, §9

[8] = system: PA1266 cell line (Pancreas); assay: CellTiter-Glo cell viability assay, PA1266; conditions: Homo sapiens, 168 h, 7 days drug treatment
Procedure: as §1, §3, §4, §5, §9

LU2511 cell line (Lung) = assay: CellTiter-Glo cell viability assay, LU2511; conditions: Homo sapiens, 168 h, 7 days drug treatment
Procedure: as §1, §3, §4, §5, §9

[9] = 168 h, CR3085, Large intestine/Colorectum, 7 days drug treatment, CellTiter-Glo
[10] = 168 h, GA0060, Stomach, 7 days drug treatment, CellTiter-Glo

Row | SMILES | pIC50 [1, 9] | pIC50 ([1]; cell line Large intestine/Colorectum CR3085, restated in text without unit) | pIC50 [2, 10] | pIC50 ([2]; cell line stomach GA0060, restated in text without unit) | pIC50 [3] | pIC50 [4] | pIC50 [5] | pIC50 (LI0612 cell line (Liver)) | pIC50 [6] | pIC50 (LU0387 cell line (Lung)) | pIC50 [7] | pIC50 [8] | pIC50 (LU2511 cell line (Lung))
1 | FC(F)(F)c1ccc(Nc2ccc3cccc(Cl)c3n2)nc1 [Comparative compound 26, 8-chloro-N-(5-(trifluoromethyl)pyridin-2-yl)quinolin-2-amine] | 6.77 | 6.77 | < 5.00 | < 5.00 |  |  |  |  |  |  |  |  | 
2 | FC(F)(F)Oc1ccc(Nc2ccc3cccc(Cl)c3n2)cc1 [ABX464, 8-Chloro-N-(4-(trifluoromethoxy)phenyl)quinolin-2-amine] | 7.10 |  | 6.22 |  | 5.21 | 5.02 | 5.14 | 5.32 | 6.06 | 5.02 | 5.43 | 5.46 | 5.15
